Reference: patent US9566312B2, “Cyclic peptides and use as medicines” (priority 2012, dated 2017)
Like-named read-outs stand apart in the source and are kept apart here. Starred links: 1 amine or outer side, 2 acyl side, 3 side chain; linkers in the order of their positions; H or OH if unused. Non-standard residues stand in square brackets, D forms with d. Residues, ends and D or L forms follow the SMILES beside them. X61 = C[C@@H]1CN(CCOC[C@@H](C)[C@@H](C(=O)[*:2])N(C)[*:1])[C@H](C)CO1; X75 = C[C@H](CCC(C)(C)OC(=O)N1CCN(C)CC1)[C@@H](C(=O)[*:2])N(C)[*:1]; X48 = C[C@@H](CN1CCN(S(C)(=O)=O)CC1)[C@@H](C(=O)[*:2])N(C)[*:1]; X56 = CCN1CCN(C(=O)OC[C@@H](C)[C@@H](C(=O)[*:2])N(C)[*:1])CC1; X70 = C[C@H](CCCOC(=O)N1CCN(C)CC1)[C@@H](C(=O)[*:2])N(C)[*:1]; X33 = CC(C)N1CCOC(COC[C@@H](C)[C@@H](C(=O)[*:2])N(C)[*:1])C1; X29 = CC(=O)N1CCN(C[C@@H](C)[C@@H](C(=O)[*:2])N(C)[*:1])CC1; X62 = COCCN1CCN(CCC[C@@H](C)[C@@H](C(=O)[*:2])N(C)[*:1])CC1; X53 = C[C@H](CN(C)Cc1cccnc1)[C@@H](C(=O)[*:2])N(C)[*:1]; X71 = COC1CN(CC[C@@H](C)[C@@H](C(=O)[*:2])N(C)[*:1])C1; X76 = CO[C@H](CN1CCOCC1)[C@@H](C(=O)[*:2])N(C)[*:1]; MeBmt = C/C=C/C[C@@H](C)[C@@H](O)[C@H](NC)C(=O)O; NMeL = CN[C@@H](CC(C)C)C(=O)O; NMeV = CN[C@H](C(=O)O)C(C)C; dNMeA = CN[C@H](C)C(=O)O; Abu = CC[C@H](N)C(=O)O

Tests used:
[1] = target: cyclophilin A (CypA) (Homo sapiens (Human), UniProt P62937); test: Inhibitor binding to cyclophilin proteins by SPR, CypA; design: unit not given here; settings: 1:1 binding model;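 note: Single-cycle kinetics on a Biacore T200, compound injected at several concentrations for 1 min each at 50 µL/min, then 10 min dissociation, in HEPES pH 7.4 buffer with 3% DMSO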
[2] = target: cyclophilin B (CypB) (Homo sapiens (Human), UniProt P23284); test: Inhibitor binding to cyclophilin proteins by SPR, CypB; design: unit not given here; settings: 1:1 binding model
Outline: (§1)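 A 1:1 model fitted to single-cycle kinetic SPR data gave association and dissociation rates and KD. Compound series injected for 1 min each at 50 μL/min, then 10 min dissociation. Running buffer HEPES pH 7.4 with NaCl, P20 and 3% DMSO; target protein was biotinylated avi-tagged cyclophilin on a CAPture surface.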

[3] = target: CypF (Homo sapiens (Human), UniProt P30405); test: Inhibitor binding to cyclophilin proteins by SPR, CypF; settings: 1:1 binding model
Outline: as §1

[4] = tested on: genotype 1b subgenomic HCV replicon in Huh7.5 cells; assay type: cell-based, hepatitis C virus; settings: read-out: RPLN-1b IC50
Outline: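 Replicon inhibition read as renilla luciferase signal versus DMSO controls after 72 h incubation, in Huh7.5 cells harbouring a genotype 1b subgenomic replicon; medium phenol red-free DMEM lacking G418. CC50 determined in parallel via Cell Titer-Glo.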

[5] = tested on: peripheral blood mononuclear cells (PBMC); test: Anti-proliferative or immunosuppressive activity, BrdU incorporation in PHA-stimulated PBMC; assay type: cell-based; settings: PHA 3 μg/ml, 60 hour compound treatment; read-out: EMV PBMC IC50
Outline: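 BrdU ELISA read-out of DNA synthesis in freshly isolated PBMCs (two donors, 30,000 cells/well, X-VIVO 15). T-cell proliferation triggered with phytohemagglutinin at 3 μg/ml.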

[6] = target: organic anion transporting polypeptide 1B1 (OATP1B1) (Homo sapiens (Human), UniProt Q9Y6L6); test: OATP assay in CHO-OATP1B1 cells;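 note: inhibition of probe substrate uptake into the cells, ten minutes exposure, accumulated substrate read by fluorescence once cells were lysed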
[7] = genotype 1b replicon, 72 h incubation

Chain of CypF (P30405 30-207): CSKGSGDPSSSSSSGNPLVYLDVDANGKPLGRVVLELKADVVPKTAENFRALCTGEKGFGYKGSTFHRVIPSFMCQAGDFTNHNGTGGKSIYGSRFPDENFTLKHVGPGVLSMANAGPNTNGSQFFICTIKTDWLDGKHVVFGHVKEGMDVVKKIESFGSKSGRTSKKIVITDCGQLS
Chain of organic anion transporting polypeptide 1B1 (OATP1B1) (Q9Y6L6 whole entry): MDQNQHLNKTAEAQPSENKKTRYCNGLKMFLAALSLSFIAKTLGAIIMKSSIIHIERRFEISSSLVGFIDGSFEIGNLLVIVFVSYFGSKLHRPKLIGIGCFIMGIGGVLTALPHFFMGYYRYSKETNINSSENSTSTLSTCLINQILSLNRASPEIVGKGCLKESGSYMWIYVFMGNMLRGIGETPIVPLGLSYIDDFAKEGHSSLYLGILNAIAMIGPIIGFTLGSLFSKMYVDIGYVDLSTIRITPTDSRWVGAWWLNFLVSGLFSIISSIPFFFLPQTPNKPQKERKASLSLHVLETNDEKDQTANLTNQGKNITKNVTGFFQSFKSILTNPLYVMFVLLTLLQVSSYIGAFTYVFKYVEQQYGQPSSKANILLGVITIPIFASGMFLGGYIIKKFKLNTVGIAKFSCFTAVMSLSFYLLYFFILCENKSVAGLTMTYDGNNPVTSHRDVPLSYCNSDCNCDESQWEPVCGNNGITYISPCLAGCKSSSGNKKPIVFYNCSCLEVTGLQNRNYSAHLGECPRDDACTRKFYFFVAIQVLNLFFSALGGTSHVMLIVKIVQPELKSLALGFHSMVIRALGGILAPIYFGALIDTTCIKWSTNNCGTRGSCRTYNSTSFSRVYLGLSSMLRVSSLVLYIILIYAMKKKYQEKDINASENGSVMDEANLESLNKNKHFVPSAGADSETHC
Chain of cyclophilin B (CypB) (P23284 34-216): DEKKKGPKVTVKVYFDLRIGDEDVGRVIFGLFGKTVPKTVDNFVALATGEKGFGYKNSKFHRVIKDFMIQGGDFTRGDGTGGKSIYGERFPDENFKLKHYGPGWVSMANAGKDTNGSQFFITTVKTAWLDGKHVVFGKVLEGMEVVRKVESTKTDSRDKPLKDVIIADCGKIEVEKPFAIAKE
Chain of cyclophilin A (CypA) (P62937 whole entry): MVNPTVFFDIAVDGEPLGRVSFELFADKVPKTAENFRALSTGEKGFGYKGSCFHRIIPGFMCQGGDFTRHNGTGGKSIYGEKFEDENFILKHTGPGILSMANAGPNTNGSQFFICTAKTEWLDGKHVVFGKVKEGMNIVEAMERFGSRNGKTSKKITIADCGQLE

Compound	CypA Kd [1]	CypB Kd [2]	CypF Kd [3]	IC50 [4, 7]	IC50 [5]	IC50 [6]	IC50 [4]
C/C=C/C[C@@H](C)[C@@H](O)[C@H]1C(=O)N[C@@H](CC)C(=O)N(C)[C@H](C)C(=O)N(C)[C@@H]([C@H](C)CCCOC(=O)N2CCN(C)CC2)C(=O)N[C@@H](C(C)C)C(=O)N(C)[C@@H](CC(C)C)C(=O)N[C@@H](C)C(=O)N[C@H](C)C(=O)N(C)[C@@H](CC(C)C)C(=O)N(C)[C@@H](CC(C)C)C(=O)N(C)[C@@H](C(C)C)C(=O)N1C [Compound 2.19.7, 3-[D-Ala]-4-[(2S,3R)-3-methyl-2-(methylamino)-6-((4-methylpiperazine-1-carbonyl)oxy)hexanoyl]-cyclosporin] (cyclo(A[dA][NMeL][NMeL][NMeV][MeBmt][Abu][dNMeA][X70]V[NMeL]))	1.1	0.7	0.7 nM	11 nM	15900 nM	2900 nM	–
C/C=C/C[C@@H](C)[C@@H](O)[C@H]1C(=O)N[C@@H](CC)C(=O)N(C)[C@H](C)C(=O)N(C)[C@@H]([C@H](C)CN(C)Cc2cccnc2)C(=O)N[C@@H](C(C)C)C(=O)N(C)[C@@H](CC(C)C)C(=O)N[C@@H](C)C(=O)N[C@H](C)C(=O)N(C)[C@@H](CC(C)C)C(=O)N(C)[C@@H](CC(C)C)C(=O)N(C)[C@@H](C(C)C)C(=O)N1C [Compound 2.5.25, 3-[D-Ala]-4-[(2S,3R)-3-methyl-4-(methyl(pyridin-3-ylmethyl)amino)-2-(methylamino)butanoyl]-cyclosporin] (cyclo(A[dA][NMeL][NMeL][NMeV][MeBmt][Abu][dNMeA][X53]V[NMeL]))	1.8	1.0	1 nM	22 nM	5600 nM	1000 nM	–
C/C=C/C[C@@H](C)[C@@H](O)[C@H]1C(=O)N[C@@H](CC)C(=O)N(C)[C@H](C)C(=O)N(C)[C@@H]([C@H](C)COCC2CN(C(C)C)CCO2)C(=O)N[C@@H](C(C)C)C(=O)N(C)[C@@H](CC(C)C)C(=O)N[C@@H](C)C(=O)N[C@H](C)C(=O)N(C)[C@@H](CC(C)C)C(=O)N(C)[C@@H](CC(C)C)C(=O)N(C)[C@@H](C(C)C)C(=O)N1C (stereo partly drawn) [Compound 2.20.2, 3-[D-Ala]-4-[(2S,3S)-4-(((S)-4-isopropylmorpholin-2-yl)methoxy)-3-methyl-2-(methylamino)butanoyl]-cyclosporin] (cyclo(A[dA][NMeL][NMeL][NMeV][MeBmt][Abu][dNMeA][X33]V[NMeL]))	0.6	0.5	0.3 nM	44 nM	6400 nM	4300 nM	–
C/C=C/C[C@@H](C)[C@@H](O)[C@H]1C(=O)N[C@@H](CC)C(=O)N(C)[C@H](C)C(=O)N(C)[C@@H]([C@@H](C)CN2CCN(S(C)(=O)=O)CC2)C(=O)N[C@@H](C(C)C)C(=O)N(C)[C@@H](CC(C)C)C(=O)N[C@@H](C)C(=O)N[C@H](C)C(=O)N(C)[C@@H](CC(C)C)C(=O)N(C)[C@@H](CC(C)C)C(=O)N(C)[C@@H](C(C)C)C(=O)N1C [Compound 2.17.9, 3-[D-Ala]-4-[(2S,3S)-3-methyl-2-(methylamino)-4-(4-(methylsulfonyl)piperazin-1-yl)butanoyl]-cyclosporin] (cyclo(A[dA][NMeL][NMeL][NMeV][MeBmt][Abu][dNMeA][X48]V[NMeL]))	0.9	0.6	0.5 nM	23 nM	31900 nM	400 nM	–
C/C=C/C[C@@H](C)[C@@H](O)[C@H]1C(=O)N[C@@H](CC)C(=O)N(C)[C@H](C)C(=O)N(C)[C@@H]([C@H](C)CN2CCN(C(C)=O)CC2)C(=O)N[C@@H](C(C)C)C(=O)N(C)[C@@H](CC(C)C)C(=O)N[C@@H](C)C(=O)N[C@H](C)C(=O)N(C)[C@@H](CC(C)C)C(=O)N(C)[C@@H](CC(C)C)C(=O)N(C)[C@@H](C(C)C)C(=O)N1C [Compound 2.5.23, 3-[D-Ala]-4-[(2S,3R)-4-(4-acetylpiperazin-1-yl)-3-methyl-2-(methylamino)butanoyl]-cyclosporin] (cyclo(A[dA][NMeL][NMeL][NMeV][MeBmt][Abu][dNMeA][X29]V[NMeL]))	1.6	0.7	0.8 nM	47 nM	22800 nM	2300 nM	–
C/C=C/C[C@@H](C)[C@@H](O)[C@H]1C(=O)N[C@@H](CC)C(=O)N(C)[C@H](C)C(=O)N(C)[C@@H]([C@H](C)CCCN2CCN(CCOC)CC2)C(=O)N[C@@H](C(C)C)C(=O)N(C)[C@@H](CC(C)C)C(=O)N[C@@H](C)C(=O)N[C@H](C)C(=O)N(C)[C@@H](CC(C)C)C(=O)N(C)[C@@H](CC(C)C)C(=O)N(C)[C@@H](C(C)C)C(=O)N1C [Compound 2.19.6, 3-[D-Ala]-4-[(2S,3R)-6-(4-(2-methoxyethyl)piperazin-1-yl)-3-methyl-2-(methylamino)hexanoyl]-cyclosporin] (cyclo(A[dA][NMeL][NMeL][NMeV][MeBmt][Abu][dNMeA][X62]V[NMeL]))	0.7	0.7	0.5 nM	110 nM	1600 nM	2200 nM	–
C/C=C/C[C@@H](C)[C@@H](O)[C@H]1C(=O)N[C@@H](CC)C(=O)N(C)[C@H](C)C(=O)N(C)[C@@H]([C@H](C)COC(=O)N2CCN(CC)CC2)C(=O)N[C@@H](C(C)C)C(=O)N(C)[C@@H](CC(C)C)C(=O)N[C@@H](C)C(=O)N[C@H](C)C(=O)N(C)[C@@H](CC(C)C)C(=O)N(C)[C@@H](CC(C)C)C(=O)N(C)[C@@H](C(C)C)C(=O)N1C [Compound 2.5.24, 3-[D-Ala]-4-[(2S,3S)-4-((4-ethylpiperazine-1-carbonyl)oxy)-3-methyl-2-(methylamino)butanoyl]-cyclosporin] (cyclo(A[dA][NMeL][NMeL][NMeV][MeBmt][Abu][dNMeA][X56]V[NMeL]))	0.5	0.3	0.3 nM	23 nM	3600 nM	1900 nM	–
C/C=C/C[C@@H](C)[C@@H](O)[C@H]1C(=O)N[C@@H](CC)C(=O)N(C)[C@H](C)C(=O)N(C)[C@@H]([C@H](C)CCC(C)(C)OC(=O)N2CCN(C)CC2)C(=O)N[C@@H](C(C)C)C(=O)N(C)[C@@H](CC(C)C)C(=O)N[C@@H](C)C(=O)N[C@H](C)C(=O)N(C)[C@@H](CC(C)C)C(=O)N(C)[C@@H](CC(C)C)C(=O)N(C)[C@@H](C(C)C)C(=O)N1C [Compound 2.12.2, 3-[D-Ala]-4-[(2S,3R)-3,6-dimethyl-2-(methylamino)-6-((4-methylpiperazine-1-carbonyl)oxy)heptanoyl]-cyclosporin] (cyclo(A[dA][NMeL][NMeL][NMeV][MeBmt][Abu][dNMeA][X75]V[NMeL]))	22	6.8	10 nM	180 nM	11600 nM	4700 nM	–
C/C=C/C[C@@H](C)[C@@H](O)[C@H]1C(=O)N[C@@H](CC)C(=O)N(C)[C@H](C)C(=O)N(C)[C@@H]([C@H](C)COCCN2C[C@@H](C)OC[C@H]2C)C(=O)N[C@@H](C(C)C)C(=O)N(C)[C@@H](CC(C)C)C(=O)N[C@@H](C)C(=O)N[C@H](C)C(=O)N(C)[C@@H](CC(C)C)C(=O)N(C)[C@@H](CC(C)C)C(=O)N(C)[C@@H](C(C)C)C(=O)N1C [Compound 2.8.4, 3-[D-Ala]-4-[(2S,3S)-4-(2-((2R,5R)-2,5-dimethylmorpholino)ethoxy)-3-methyl-2-(methylamino)butanoyl]-cyclosporin] (cyclo(A[dA][NMeL][NMeL][NMeV][MeBmt][Abu][dNMeA][X61]V[NMeL]))	0.9	0.7	0.7 nM	45 nM	10700 nM	3600 nM	–
C/C=C/C[C@@H](C)[C@@H](O)[C@H]1C(=O)N[C@@H](CC)C(=O)N(C)[C@H](C)C(=O)N(C)[C@@H]([C@@H](CN2CCOCC2)OC)C(=O)N[C@@H](C(C)C)C(=O)N(C)[C@@H](CC(C)C)C(=O)N[C@@H](C)C(=O)N[C@H](C)C(=O)N(C)[C@@H](CC(C)C)C(=O)N(C)[C@@H](CC(C)C)C(=O)N(C)[C@@H](C(C)C)C(=O)N1C [Compound 2.21.1, 3-[D-Ala]-4-[(2S,3R)-3-methoxy-2-(methylamino)-4-morpholinobutanoyl]-cyclosporin] (cyclo(A[dA][NMeL][NMeL][NMeV][MeBmt][Abu][dNMeA][X76]V[NMeL]))	2.8	1.2	1.2 nM	–	15700 nM	900 nM	23 nM
C/C=C/C[C@@H](C)[C@@H](O)[C@H]1C(=O)N[C@@H](CC)C(=O)N(C)[C@H](C)C(=O)N(C)[C@@H]([C@H](C)CCN2CC(OC)C2)C(=O)N[C@@H](C(C)C)C(=O)N(C)[C@@H](CC(C)C)C(=O)N[C@@H](C)C(=O)N[C@H](C)C(=O)N(C)[C@@H](CC(C)C)C(=O)N(C)[C@@H](CC(C)C)C(=O)N(C)[C@@H](C(C)C)C(=O)N1C [Compound 2.18.5, 3-[D-Ala]-4-[(2S,3R)-5-(3-methoxyazetidin-1-yl)-3-methyl-2-(methylamino)pentanoyl]-cyclosporin] (cyclo(A[dA][NMeL][NMeL][NMeV][MeBmt][Abu][dNMeA][X71]V[NMeL]))	0.9	0.6	0.5 nM	78 nM	8100 nM	1400 nM	–
